# Measurements: BindingDB's records for doi:10.7270/Q2PR7TFT (Burnham Center For Chemical Genomics, 2010)
# pEC50: −log10 of the molar value.
# Target: T1, Type-1 angiotensin II receptor (Homo sapiens, UniProt P30556)
# T1 sequence (P30556 whole entry): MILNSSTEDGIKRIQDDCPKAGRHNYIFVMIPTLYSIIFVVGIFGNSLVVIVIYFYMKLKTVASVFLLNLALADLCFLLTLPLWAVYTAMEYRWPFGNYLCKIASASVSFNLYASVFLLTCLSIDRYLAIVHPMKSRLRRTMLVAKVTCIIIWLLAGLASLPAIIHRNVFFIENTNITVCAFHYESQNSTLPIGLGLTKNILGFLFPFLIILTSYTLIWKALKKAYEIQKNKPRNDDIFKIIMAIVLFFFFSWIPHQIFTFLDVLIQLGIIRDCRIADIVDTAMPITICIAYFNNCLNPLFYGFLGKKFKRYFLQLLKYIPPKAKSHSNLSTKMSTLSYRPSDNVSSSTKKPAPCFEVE
# Assay: agonist activity at AGTR1 – cell-based, uHTS hits, selectivity assay for APJ receptor agonist project, dose response (AID 488865)
row,pEC50,SMILES
1,< 4.00,"COC(=O)C1C(Cn2cnc3ccccc32)=NC(=O)NC1c1cc(C)ccc1C (centres undefined) [methyl 6-(benzimidazol-1-ylmethyl)-4-(2,5-dimethylphenyl)-2-oxo-3,4-dihydro-1H-pyrimidine-5-carboxylate]"
2,< 4.00,"CCOC(=O)C1C(Cn2cnc3ccccc32)=NC(=O)NC1c1cc(C)ccc1C (centres undefined) [ethyl 6-(benzimidazol-1-ylmethyl)-4-(2,5-dimethylphenyl)-2-oxidanylidene-3,4-dihydro-1H-pyrimidine-5-carboxylate]"
3,< 4.00,CCCCCCC1=Cc2c/c(=C3/NN=C(c4cc(OC)c(OC)c(OC)c4)O3)c(=O)oc2=CC1=O
4,< 4.00,COc1ccc(CN=Nc2cc(C)nc3ccc(OC)cc23)c(OC)c1
